This is an account of results in DBAASP.

In general, MIC refers to the least concentration at which growth counts as inhibited. Read a high MIC as a less susceptible organism.

Test systems include Escherichia coli W160-37; Escherichia coli 1005; Candida albicans; Escherichia coli BW25113; Escherichia coli ML-35p; Micrococcus luteus; Saccharomyces cerevisiae.
Holding throughout (test): ≥ marks a high value that may be exact or a test limit, other limits are often not marked, values filed in µg/mL are converted to µM
For assay [1], the system named is Staphylococcus aureus ATCC 8530.
Assay [2] relates to Candida parapsilosis CGMCC 2.3989.
The subject of assay [3] is Escherichia coli ATCC 25922.
The test system of assay [4] is Staphylococcus aureus ATCC 43300.
The test system of assay [5] is Staphylococcus aureus ATCC 29213.
In assay [6] the test system is Salmonella enterica subsp. enterica serovar Typhimurium ATCC 14028.
Assay [7] has as its system Candida krusei CGMCC 2.1857.
In assay [8] the test system is Staphylococcus aureus ATCC 25923.
Assay [9] concerns Salmonella enterica subsp. enterica serovar Pullorum ATCC 7913.
Assay [10] concerns Staphylococcus epidermidis ATCC 12228.
Assay [11] deals with Candida tropicalis CGMCC 2.1975.
For assay [12], the system named is Pseudomonas aeruginosa ATCC 15692.
The test system of assay [13] is Escherichia coli ATCC 35218.
The subject of assay [14] is Bacillus cereus ATCC 11778.
Assay [15] concerns Pseudomonas aeruginosa ATCC 9027.
Assay [16] has as its system Pseudomonas aeruginosa ATCC BAA-427.
Assay [17] has as its system Bacillus subtilis ATCC 6633.
The subject of assay [18] is Staphylococcus aureus BCRC 10780.

SMILES strings stand for the structures. In brackets after ≈: the same amount, converted by molar mass. Several values for one entry are separate records, joined by “and”; a condition that tells them apart may be missing. Equal entries are not always repeated. Bounds are passed on as bounds.

As to `CC[C@H](C)[C@H](NC(=O)[C@H](CC(C)C)NC(=O)[C@H](CCC(N)=O)NC(=O)[C@H](CCCCN)NC(C)=O)C(=O)N[C@@H](CCCN=C(N)N)C(=O)N[C@@H](Cc1ccccc1)C(=O)N[C@@H](CC(C)C)C(=O)N[C@@H](CCCCN)C(=O)N[C@@H](CCCN=C(N)N)C(=O)N[C@@H](CC(C)C)C(=O)N[C@@H](CC(=O)O)C(=O)N[C@@H](CCCN=C(N)N)C(=O)N[C@@H](CC(N)=O)C(=O)N[C@@H](CC(C)C)C(=O)N[C@@H](Cc1c[nH]c2ccccc12)C(=O)NCC(=O)N[C@@H](CC(C)C)C(=O)N[C@@H](C)C(N)=O` [KQLIRFLKRLDRNLWGLA], the MIC came to 11 µM (≈ 25.1 µg/mL) in assay [1] and 4.5 µM (≈ 10.3 µg/mL) in the assay with Escherichia coli W160-37.
With `NC(=O)[C@H](CCCN=C(N)N)NC(=O)[C@H](CCCN=C(N)N)NC(=O)[C@H](Cc1ccccc1)NC(=O)[C@H](CCCN=C(N)N)NC(=O)[C@H](Cc1ccccc1)NC(=O)[C@H](Cc1ccccc1)NC(=O)[C@H](Cc1ccccc1)NC(=O)[C@H](CCCN=C(N)N)NC(=O)[C@H](Cc1ccccc1)NC(=O)[C@H](CCCN=C(N)N)NC(=O)[C@@H](N)CCCN=C(N)N` [RRFRFFFRFRR], the minimal inhibitory concentration (MIC) was 16 µM (≈ 27 µg/mL) in assay [2]; 4 µM and > 2 µM in assay [3]; 4 µM (≈ 6.76 µg/mL) in assay [4]; 4 µM (≈ 6.76 µg/mL) with Escherichia coli 1005; 4 µM (≈ 6.76 µg/mL) in assay [5]; 2.83 µM (≈ 4.78 µg/mL) in the assay on Candida albicans. In addition, the MIC came to 4 µM (≈ 6.76 µg/mL) in [6]; 2 µM (≈ 3.38 µg/mL) in assay [7]; 8 µM (≈ 13.5 µg/mL) in [8]; 2 µM (≈ 3.38 µg/mL) in assay [9]; 4 µM (≈ 6.76 µg/mL) in assay [10]; 1 µM (≈ 1.69 µg/mL) in assay [11].
As for `CC[C@H](C)[C@H](NC(=O)[C@H](CCCN=C(N)N)NC(=O)[C@@H](NC(=O)[C@@H](NC(=O)[C@@H](NC(=O)[C@H](CCCN=C(N)N)NC(=O)[C@@H](NC(=O)[C@@H](N)CCCN=C(N)N)[C@@H](C)CC)[C@@H](C)CC)[C@@H](C)CC)[C@@H](C)CC)C(=O)N[C@@H](CCCN=C(N)N)C(N)=O` [RIRIIIRIR], the MIC in assay [2] came to 8 µM (≈ 9.66 µg/mL); in [4], 4 µM (≈ 4.83 µg/mL); against Escherichia coli 1005, 4 µM (≈ 4.83 µg/mL); in assay [5] it was 4 µM (≈ 4.83 µg/mL); with Candida albicans, 2 µM (≈ 2.42 µg/mL); in assay [6], 4 µM (≈ 4.83 µg/mL). For the same compound, the MIC stood at 2 µM (≈ 2.42 µg/mL) in assay [7]; 4 µM (≈ 4.83 µg/mL) in assay [8]; 4 µM (≈ 4.83 µg/mL) in assay [9]; 4 µM (≈ 4.83 µg/mL) in assay [10]; 2 µM (≈ 2.42 µg/mL) in assay [11].
In the assay with Escherichia coli BW25113, `CC[C@H](C)[C@H](NC(=O)[C@@H]1CCCN1C(=O)[C@H](CCCN=C(N)N)NC(=O)[C@H](CCCN=C(N)N)NC(=O)[C@H](Cc1c[nH]c2ccccc12)NC(=O)[C@@H](N)CCCN=C(N)N)C(=O)N[C@@H](CCCN=C(N)N)C(=O)N[C@@H](CCCN=C(N)N)C(=O)N1CCC[C@H]1C(=O)N1CCC[C@H]1C(=O)N[C@H](C(=O)N[C@@H](CCCN=C(N)N)C(=O)N1CCC[C@H]1C(=O)N1CCC[C@H]1C(=O)N[C@@H](Cc1ccccc1)C(=O)N[C@@H](Cc1ccc(O)cc1)C(=O)N[C@@H](CCCN=C(N)N)C(=O)O)[C@@H](C)CC` [RWRRPIRRPPIRPPFYR] displayed an MIC of 8 µM (≈ 18.6 µg/mL).
For `CC(C)C[C@H](NC(=O)[C@H](CCCCN)NC(=O)[C@H](CCCCN)NC(=O)[C@H](Cc1ccccc1)NC(=O)[C@H](Cc1ccccc1)NC(=O)[C@H](CCCCN)NC(=O)[C@H](CCCCN)NC(=O)[C@H](Cc1ccccc1)NC(=O)[C@H](CCCN=C(N)N)NC(=O)[C@@H](N)CCCCN)C(=O)N[C@@H](CCCCN)C(=O)N[C@@H](CCCCN)C(=O)N[C@@H](Cc1ccccc1)C(=O)N[C@H](C(=O)N[C@@H](CCCCN)C(=O)N[C@@H](CCCCN)C(=O)NCC(=O)N[C@@H](Cc1ccccc1)C(=O)N[C@@H](CCCCN)C(=O)N[C@@H](CCCCN)C(=O)N[C@@H](Cc1ccccc1)C(=O)N[C@@H](C)C(=O)N[C@@H](CCCCN)C(=O)N[C@H](C(=O)O)C(C)C)C(C)C` [KRFKKFFKKLKKFVKKGFKKFAKV], the MIC against Escherichia coli ML-35p was 1.98 µM and 0.989 µM.
Regarding `CSCC[C@H](NC(=O)[C@@H](NC(=O)[C@@H](NC(=O)[C@H](CCCCN)NC(=O)[C@H](CC(C)C)NC(=O)[C@H](C)NC(=O)[C@H](CCCCN)NC(=O)[C@@H](NC(=O)[C@H](CC(C)C)NC(=O)[C@H](Cc1ccccc1)NC(=O)[C@H](CC(N)=O)NC(=O)[C@H](CCC(=O)O)NC(=O)[C@H](Cc1ccccc1)NC(=O)CNC(=O)[C@H](CC(C)C)NC(=O)[C@@H](N)CCCCN)C(C)C)[C@@H](C)O)C(C)C)C(=O)N[C@@H](Cc1cnc[nH]1)C(=O)N[C@H](C(=O)N1CCC[C@H]1C(=O)N[C@H](C(=O)N[C@@H](CO)C(=O)N1CCC[C@H]1C(=O)N[C@@H](CC(C)C)C(=O)N[C@@H](CC(C)C)C(N)=O)[C@@H](C)O)C(C)C` [KLGFENFLVKALKTVMHVPTSPLL], the minimal inhibitory concentration (MIC) is 16 µM (≈ 42.9 µg/mL) in assay [3]; > 256 µM in assay [8]; ≥ 256 µM in [12]; 4 µM (≈ 10.7 µg/mL) in the assay with Micrococcus luteus; ≥ 64 µM against Saccharomyces cerevisiae.
Regarding `CC(C)C[C@H](NC(=O)[C@@H](NC(=O)[C@H](CCCCN)NC(=O)[C@H](CCCCN)NC(=O)[C@@H](N)CC(C)C)C(C)C)C(=O)N[C@@H](CCCCN)C(=O)N[C@@H](C)C(=O)N[C@@H](C)C(=O)N[C@@H](C)C(N)=O` [LKKVLKAAA], the MIC was > 50 µM in [8], ≥ 50 µM in assay [13], ≥ 50 µM in [14] and > 50 µM in [15].
Compound `CC[C@H](C)[C@H](NC(=O)[C@@H]1CCCN1C(=O)[C@H](Cc1ccccc1)NC(=O)[C@H](CCCN=C(N)N)NC(=O)[C@H](Cc1ccccc1)NC(=O)[C@@H](N)CCCN=C(N)N)C(=O)N[C@@H](CCCN=C(N)N)C(=O)N[C@@H](CCCN=C(N)N)C(=O)N1CCC[C@H]1C(=O)N1CCC[C@H]1C(=O)N[C@H](C(=O)N[C@@H](CCCN=C(N)N)C(=O)N1CCC[C@H]1C(=O)N1CCC[C@H]1C(=O)N[C@@H](Cc1ccccc1)C(=O)N[C@@H](Cc1ccc(O)cc1)C(=O)N1CCC[C@H]1C(=O)O)[C@@H](C)CC` [RFRFPIRRPPIRPPFYP] returned an MIC in the assay on Escherichia coli BW25113 of 8 µM (≈ 17.7 µg/mL).
As to `CC(C)C[C@H](NC(=O)[C@H](CCCN=C(N)N)NC(=O)[C@H](CC(C)C)NC(=O)[C@H](CC(C)C)NC(=O)[C@H](CC(C)C)NC(=O)[C@H](CCCN=C(N)N)NC(=O)[C@H](CC(C)C)NC(=O)[C@@H](N)CCCN=C(N)N)C(=O)N[C@@H](CCCN=C(N)N)C(N)=O` [RLRLLLRLR], the MIC in assay [2] is ≥ 64 µM; in [3], 4 µM and 8 µM; in [4], 4 µM (≈ 4.83 µg/mL); in the assay on Escherichia coli 1005, 4 µM (≈ 4.83 µg/mL); in assay [5] it was 8 µM (≈ 9.66 µg/mL); against Candida albicans it was 8 µM (≈ 9.66 µg/mL). In addition, the MIC came out at 4 µM (≈ 4.83 µg/mL) in [6]; 8 µM (≈ 9.66 µg/mL) in [7]; 8 µM (≈ 9.66 µg/mL) in [8]; 4 µM (≈ 4.83 µg/mL) in assay [9]; 4 µM (≈ 4.83 µg/mL) in assay [10]; 2 µM (≈ 2.42 µg/mL) in assay [11].
Consider `CC(C)C[C@H](NC(=O)[C@H](CC(=O)O)NC(=O)[C@H](CC(C)C)NC(=O)[C@H](CCCCN)NC(=O)[C@H](CC(C)C)NC(=O)[C@H](CC(=O)O)NC(=O)[C@H](CC(C)C)NC(=O)[C@H](CCCCN)NC(=O)[C@H](CC(C)C)NC(=O)[C@H](CC(=O)O)NC(=O)[C@H](CC(C)C)NC(=O)[C@H](CCCCN)NC(=O)[C@H](CCCN=C(N)N)NC(=O)[C@H](CCCN=C(N)N)NC(=O)[C@@H](N)CCCN=C(N)N)C(=O)O` [RRRKLDLKLDLKLDL], for which the minimum inhibitory concentration (MIC) in [3] came to 6 µM (≈ 11.4 µg/mL); in assay [16] it was 6 µM (≈ 11.4 µg/mL); in assay [17] it was 5 µM (≈ 9.48 µg/mL); in [8], 5 µM (≈ 9.48 µg/mL).
As for `CC[C@H](C)[C@H](NC(=O)[C@H](CCCCN)NC(=O)[C@@H]1CCCN1C(=O)[C@@H](NC(=O)[C@H](CC(C)C)NC(=O)[C@H](C)NC(=O)[C@H](Cc1ccccc1)NC(=O)[C@H](Cc1ccccc1)NC(=O)CNC(C)=O)[C@@H](C)CC)C(N)=O` [GFFALIPKI], in assay [18], the MIC was ≥ 99.5 µM.
